Experimental findings from publication PMC4508061, “Selectivity Profiling and Biological Activity of Novel β-Carbolines as Potent and Selective DYRK1 Kinase Inhibitors” (PLoS ONE, 2015) are described below.

In data set [1] the target is T1, DYRK1A (Homo sapiens, UniProt Q13627).
T1 construct: purchased ProQinase (Freiburg, Germany)
Nature of the data set: Kinase-GLO luminescent kinase assay. It counts as biochemical. As to conditions: 1 μM compound; means of at least 3 measurements. The procedure: (§1) Bacterial expression plasmids for GST-DYRK1A-ΔC and GST-DYRK2 have been described earlier. […] Expression in logarithmically growing E. coli culture was performed for 3 h at 37°C (GST-DYRK1A-ΔC and GST-DYRK2), 3 h at 26°C (GST-HIPK2cat), over night at 28°C (GST-CLK1cat) or over night at room temperature (GST-DYRK1Bcat).
(§2) Compounds were screened for inhibitory effects against GST-DYRK1A-ΔC, GST-DYRK1Bcat, GST-DYRK2, GST-CLK1cat or GST-HIPK2cat using the Kinase-GLO Luminescent Kinase Assay from Promega. Assays were performed in a total volume of 10 μL in kinase-buffer (25 mM Hepes pH 7.4, 0.5 mM DTT, 5 mM MgCl2, 5 μM ATP) with appropriate peptide substrates (20 μM DYRKtide for the DYRKs and 100 μM DYRKtide for HIPK2, […]; or 100 μM RS domain-derived peptide for CLK1, […]). Assays were started with this amount of a kinase preparation that consumed approximately 90% of the ATP in the assay (linear range of the kinase titration curve). The reactions were run at room temperature for 30 min before 10 μL Kinase-GLO reagent was added. After incubation at room temperature for additional 10 min, luminescence was recorded for 1 s.
(In general: In Kinase-Glo more light means more ATP remaining.)

The target in data set [2] is T2, DYRK2 (Homo sapiens, UniProt Q92630).
T2 construct: purchased ProQinase (Freiburg, Germany)
T2 sequence (Q92630 1-601): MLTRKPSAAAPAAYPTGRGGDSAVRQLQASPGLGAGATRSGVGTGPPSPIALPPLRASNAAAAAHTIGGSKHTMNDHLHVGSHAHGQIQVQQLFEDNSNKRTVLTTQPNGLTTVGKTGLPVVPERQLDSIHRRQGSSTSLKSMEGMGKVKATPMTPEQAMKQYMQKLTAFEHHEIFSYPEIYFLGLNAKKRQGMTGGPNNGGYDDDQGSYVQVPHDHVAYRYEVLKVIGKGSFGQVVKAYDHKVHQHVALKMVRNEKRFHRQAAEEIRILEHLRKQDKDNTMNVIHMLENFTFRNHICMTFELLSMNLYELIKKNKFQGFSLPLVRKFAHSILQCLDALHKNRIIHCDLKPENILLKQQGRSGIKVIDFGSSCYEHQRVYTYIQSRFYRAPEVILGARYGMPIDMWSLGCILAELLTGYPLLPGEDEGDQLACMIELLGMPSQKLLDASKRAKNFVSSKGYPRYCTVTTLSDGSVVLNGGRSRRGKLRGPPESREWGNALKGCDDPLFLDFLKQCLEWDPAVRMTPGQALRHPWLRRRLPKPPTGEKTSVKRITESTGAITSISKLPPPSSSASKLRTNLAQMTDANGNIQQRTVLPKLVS
The data set is described as follows: Kinase-GLO luminescent kinase assay. It counts as biochemical. Particulars: 1 μM compound; means of at least 3 measurements. The procedure: as §1, §2

The test system of data set [3] is HeLa cells. Nature of the data set: Cell viability XTT assay. In kind it is cell-based. Particulars: 3 days.
The subject of data set [4] is PC12 cells. Nature of the data set: Cell viability XTT assay. In kind it is cell-based. As to conditions: 3 days. Background: Tetrazolium dyes change colour on reduction, which living cells bring about.
The subject of data set [5] is SH-SY5Y cells. Nature of the data set: Cell viability XTT assay. In kind it is cell-based. Particulars: 3 days.
Data set [6] has as its target CLK1 (Homo sapiens, UniProt P49759). The data set is described as follows: Kinase-GLO luminescent kinase assay. It counts as biochemical. Further details: made in house; host or cells: E. coli. As to conditions: 1 μM compound; means of at least 3 measurements. The procedure:
as §1, §2

The target of data set [7] is DYRK1B (Homo sapiens, UniProt Q9Y463). Nature of the data set: Kinase-GLO luminescent kinase assay. In kind it is biochemical. On the set-up: made in house; host or cells: E. coli. Particulars: 1 μM compound; means of at least 3 measurements. The procedure: as §1, §2
Data set [8] addresses HIPK2 (Homo sapiens, UniProt Q9H2X6). The data set is described as follows: Kinase-GLO luminescent kinase assay. In kind it is biochemical. Further details: made in house; host or cells: E. coli. As to conditions: 10 μM compound; means of at least 3 measurements. The procedure: as §1, §2
Data set [9] has as its target T3, DYRK1A (Rattus norvegicus, UniProt Q63470).
T3 construct: Bacterial expression plasmids for GST-DYRK1A-ΔC and GST-DYRK2 have been described earlier; made in house; host or cells: E. coli
The data set is described as follows: Radioactive kinase assay (DYRKtide, 33P-ATP). In kind it is biochemical. As to conditions: 100 μM ATP, n = 3–5 concentration response curves, read-out: Inhibition of DYRK1A IC50. The procedure: Each sample was assayed in triplicate. […]
estimate solubility and permeability in drug discovery and development settings. Adv. Drug Delivery Rev. 23, 4-25. […]
that influence the oral bioavailability of drug candidates. […]
c estimated using the Molinspiration logP engine. […]
log [inhibitor,M] log [inhibitor, M]
(§3) 2 were calculated. Kinase activity of DYRK1A was determined by radiometric assays using the peptide DYRKtide as a substrate. MAO-A activity was measured with the help of the MAO-GLO assay kit (Promega). IC50 values were calculated by curve fitting with the help of […]
(§4) the […] PRISM 5.0 program after automatic outlier elimination. The graphs present

The target of data set [10] is T4, MAO-A (Homo sapiens, UniProt P21397).
T4 sequence (P21397 1-527): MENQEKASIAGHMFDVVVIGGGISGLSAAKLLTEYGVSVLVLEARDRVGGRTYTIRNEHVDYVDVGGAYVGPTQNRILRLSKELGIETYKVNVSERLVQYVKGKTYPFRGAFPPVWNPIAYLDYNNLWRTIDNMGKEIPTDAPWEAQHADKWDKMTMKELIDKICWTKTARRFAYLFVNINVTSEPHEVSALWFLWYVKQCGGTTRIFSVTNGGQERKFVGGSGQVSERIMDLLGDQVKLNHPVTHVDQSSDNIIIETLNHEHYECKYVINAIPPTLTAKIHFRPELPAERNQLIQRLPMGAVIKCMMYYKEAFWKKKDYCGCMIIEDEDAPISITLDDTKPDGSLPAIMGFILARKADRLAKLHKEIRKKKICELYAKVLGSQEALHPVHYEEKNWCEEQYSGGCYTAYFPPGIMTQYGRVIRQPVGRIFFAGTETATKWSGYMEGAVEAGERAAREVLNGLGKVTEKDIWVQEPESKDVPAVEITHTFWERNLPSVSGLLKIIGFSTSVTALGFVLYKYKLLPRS
The data set is described as follows: MAO-GLO assay. It counts as biochemical. As to conditions: for IC50: read-out: Inhibition of MAO-A IC50. The procedure: as §3, §4

Data set [11] is described as follows: Cell viability XTT assay. In kind it is cell-based. Particulars: human, HeLa cells, read-out: Viability of treated cells relative to untreated control.
Data set [12] in a line: Cell viability XTT assay. In kind it is cell-based. As to conditions: rat, PC12 cells, read-out: Viability of treated cells relative to untreated control; for viability at 3 days, 1 µM: PC12, 1 μM; for viability at 3 days, 3 µM: PC12, 3 μM; for viability at 3 days, 10 µM: PC12, 10 μM.
Data set [13] is described as follows: Cell viability XTT assay. It counts as cell-based. As to conditions: human, SH-SY5Y cells, read-out: Viability of treated cells relative to untreated control.
The mark [14] stands for this setting: n = 3–5 concentration response curves.

Where two headings read alike, the source gives them in different places.

CLK1, sequence (P49759 141-484): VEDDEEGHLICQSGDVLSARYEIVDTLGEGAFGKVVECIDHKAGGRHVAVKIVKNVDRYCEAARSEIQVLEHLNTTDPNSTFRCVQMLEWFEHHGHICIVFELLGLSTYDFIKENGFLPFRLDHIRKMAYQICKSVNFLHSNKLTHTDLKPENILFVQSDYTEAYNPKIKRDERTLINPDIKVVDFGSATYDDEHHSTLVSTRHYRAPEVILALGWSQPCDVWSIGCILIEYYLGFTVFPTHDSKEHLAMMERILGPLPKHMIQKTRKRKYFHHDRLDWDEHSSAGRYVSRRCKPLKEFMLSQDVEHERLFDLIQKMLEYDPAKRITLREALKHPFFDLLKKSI
HIPK2, sequence (Q9H2X6 180-533): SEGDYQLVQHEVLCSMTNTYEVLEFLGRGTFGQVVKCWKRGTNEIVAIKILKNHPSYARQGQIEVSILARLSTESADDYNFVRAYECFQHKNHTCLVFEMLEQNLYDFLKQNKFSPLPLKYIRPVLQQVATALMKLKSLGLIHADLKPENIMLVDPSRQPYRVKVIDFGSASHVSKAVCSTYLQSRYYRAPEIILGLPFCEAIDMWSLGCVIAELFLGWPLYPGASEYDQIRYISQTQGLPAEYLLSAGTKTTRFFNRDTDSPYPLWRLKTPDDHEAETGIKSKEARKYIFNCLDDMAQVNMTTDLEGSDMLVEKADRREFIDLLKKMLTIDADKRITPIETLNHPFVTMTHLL

Turning to `Nc1ncnc2c1c(I)cn2[C@@H]1O[C@H](CO)[C@@H](O)[C@H]1O` [IoT, 5-iodotubercidin, reference compound], the “Residual activity (% of control) DYRK1A” value in [1] is 13 % of control. Also, the “Residual activity (% of control) DYRK2” value in data set [2] was 10 % of control. In addition, the “Viability of treated cells relative to untreated control” value in data set [3] (1 μM) was 67%; in data set [3] (3 μM), 16%; in [3] (10 μM), 18%; in data set [4] (PC12, 1 μM) it was 62%; in data set [4] (PC12, 3 μM), 17%; in [4] (PC12, 10 μM), 5%. For the same compound, the “Viability of treated cells relative to untreated control” value in data set [5] (1 μM) was 13%; in data set [5] (3 μM), 10%; in [5] (10 μM), 15%. Also, the “Residual activity (% of control) CLK1” value in data set [6] was 4 % of control. The “Residual activity (% of control) DYRK1B” value in [7] is 4 % of control. Also, the “Residual activity (% of control) HIPK2” value in data set [8] is 20 % of control.

Broadly, the IC50 is the concentration that inhibits the measured activity by half. By viability is commonly meant the share of living cells, or the viability signal relative to a control. Take `COc1ccc2c3ccnc(C)c3n(C(C)C#N)c2c1` (stereo not shown) [AnnH43]: the “Residual activity (% of control) DYRK1A” value in data set [1] is on record as 5 % of control. Moreover, the “Residual activity (% of control) DYRK2” value in data set [2] is recorded as 56 % of control. Besides, the IC50 worked out at 0.202 µM in data set [9] and 5.39 µM in [10] (setting [14]). Moreover, the results for the viability at 3 days, 1 µM in [11], in data set [12] and in [13] were 91%, 88% and 61%, respectively. Further, the figures for the viability at 3 days, 3 µM in [11], in data set [12] and in [13] were 80%, 88% and 68%, respectively. Also, the viability at 3 days, 10 µM in data set [11] was 66%; in data set [12], 90%; in data set [13], 45%. In addition, the “Residual activity (% of control) CLK1” value in data set [6] is listed as 10 % of control. In addition, the “Residual activity (% of control) DYRK1B” value in data set [7] is 14 % of control. For the same compound, the “Residual activity (% of control) HIPK2” value in [8] was 84 % of control.

The term inhibition denotes the percentage by which the read-out fell short of the control. `COc1ccc2c3ccnc(C)c3n(CC#N)c2c1` [AnnH31]: the “Residual activity (% of control) DYRK1A” value in data set [1] is recorded as 8 % of control. Further, in [2], the “Residual activity (% of control) DYRK2” value is on record as 59 % of control. The half-maximal inhibitory concentration (IC50) turned out to be 0.081 µM in [9], 3.24 µM in [10] (setting [14]) and 3.2 µM in data set [10]. In data set [10] (1 μM, primary screen), this compound registered an inhibition at 1 µM of 25%. Besides, the “selectivity for DYRK1A over MAO-A” value in data set [10] (ratio of IC50 values) is 40 fold. Further, the viability at 3 days, 1 µM in data set [11] came out at 93%; in [12], 89%; in [13], 81%. Moreover, the viability at 3 days, 3 µM in data set [11] is 80%; in [12], 88%; in [13] it was 88%. For the same compound, the viability at 3 days, 10 µM amounted to 55% in data set [11], 70% in [12] and 38% in [13]. The “Residual activity (% of control) CLK1” value in data set [6] is on record as 11 % of control. Also, the “Residual activity (% of control) DYRK1B” value in [7] is given as 7 % of control. In addition, in data set [8], the “Residual activity (% of control) HIPK2” value is 70 % of control.
